Where two headings read alike, the source gives them in different places.
Experiments:
Format in all cases: cell-based
[1] = target: T1, recombinant human AXL expressed in live cells (HEK, AXL-Nanoluc fusion vector) (Homo sapiens, UniProt P30530); assay: Assay 3 AXL cellular target engagement (NanoBRET TE) assay
T1 construct: host or cells: HEK
T1 sequence (P30530 26-894): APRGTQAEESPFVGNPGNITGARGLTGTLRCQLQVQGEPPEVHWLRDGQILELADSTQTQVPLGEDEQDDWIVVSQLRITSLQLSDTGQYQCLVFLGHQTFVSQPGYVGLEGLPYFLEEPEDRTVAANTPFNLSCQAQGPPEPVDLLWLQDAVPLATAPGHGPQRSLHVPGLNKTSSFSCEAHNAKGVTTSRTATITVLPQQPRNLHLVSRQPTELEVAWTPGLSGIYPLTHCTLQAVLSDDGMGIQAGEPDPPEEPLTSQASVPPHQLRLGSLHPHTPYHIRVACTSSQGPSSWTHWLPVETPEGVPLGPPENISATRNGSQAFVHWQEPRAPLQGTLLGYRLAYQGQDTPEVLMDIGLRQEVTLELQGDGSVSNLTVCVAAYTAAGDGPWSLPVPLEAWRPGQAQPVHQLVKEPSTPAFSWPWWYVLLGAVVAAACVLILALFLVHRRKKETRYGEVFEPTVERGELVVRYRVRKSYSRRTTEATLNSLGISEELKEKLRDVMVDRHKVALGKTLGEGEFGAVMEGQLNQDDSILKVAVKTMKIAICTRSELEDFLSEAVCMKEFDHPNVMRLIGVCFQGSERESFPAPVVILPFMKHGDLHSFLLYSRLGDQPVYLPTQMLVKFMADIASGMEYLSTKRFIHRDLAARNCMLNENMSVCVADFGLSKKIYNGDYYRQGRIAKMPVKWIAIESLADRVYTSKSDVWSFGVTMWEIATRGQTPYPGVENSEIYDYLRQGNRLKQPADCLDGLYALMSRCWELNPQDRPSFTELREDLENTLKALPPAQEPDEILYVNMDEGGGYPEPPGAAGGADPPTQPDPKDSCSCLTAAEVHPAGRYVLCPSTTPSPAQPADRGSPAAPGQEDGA
Experimental: Assay 3—AXL Cellular Target Engagement (TE) Assay
Compound affinities for recombinant human AXL expressed in live cells were assessed via the Promega NanoBRET TE assay technology. Human Embryonic Kidney (HEK) cells were transiently transfected with the AXL-Nanoluc fusion vector (Promega Cat NV1071) using Fugene HD reagent (Promega E2311). […] Incubations were conducted for 2 h at 37° C., after which 20 μl NanoGlo substrate/inhibitor mix (Promega N2161) was added to each well for 2-3 min. The plate was then read on a BMG Pherastar FSX using a NanoBRET filter to record donor emission at 450 nm and acceptor fluorophore emission at 610 nm. From this the BRET ratio (acceptor 610 nm/donor 450 nm) for each data point was calculated.

[2] = target: T2, Ba/F3 Pro B-cell line expressing TEL-human MERTK fusion domain (Homo sapiens, UniProt Q12866)
T2 sequence (Q12866 587-858 limits assumed): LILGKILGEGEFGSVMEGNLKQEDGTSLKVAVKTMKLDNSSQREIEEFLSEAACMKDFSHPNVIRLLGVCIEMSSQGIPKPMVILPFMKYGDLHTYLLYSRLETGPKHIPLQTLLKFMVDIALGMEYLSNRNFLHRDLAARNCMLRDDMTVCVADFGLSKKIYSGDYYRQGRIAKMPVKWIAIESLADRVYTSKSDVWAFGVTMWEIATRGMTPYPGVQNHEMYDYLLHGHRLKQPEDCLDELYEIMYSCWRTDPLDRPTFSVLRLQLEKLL
How it was run: (§1)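 Ba/F3 cells dependent on BCR-AXL or TEL-MERTK fusion kinase (IL3-free; IL3 only for control lines) treated with compound 48 h at 37 °C, 0.25% DMSO. Viability by CellTiter-Glo luminescence; IC50 for half-maximal inhibition of survival from 4-parameter variable-slope fit.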

[3] = target: T3, Ba/F3 Pro B-cell line expressing BCR-human AXL kinase domain fusion protein (Homo sapiens, UniProt P30530); assay: Assay 5 Ba/F3 cell survival assay, BCR-Axl; conditions: read-out: BCR-Axl Ba/F3 IC50, 48 h, CellTiter-Glo
T3 construct: P11274 (Breakpoint cluster region protein)
T3 sequence (P30530 536-807 limits assumed): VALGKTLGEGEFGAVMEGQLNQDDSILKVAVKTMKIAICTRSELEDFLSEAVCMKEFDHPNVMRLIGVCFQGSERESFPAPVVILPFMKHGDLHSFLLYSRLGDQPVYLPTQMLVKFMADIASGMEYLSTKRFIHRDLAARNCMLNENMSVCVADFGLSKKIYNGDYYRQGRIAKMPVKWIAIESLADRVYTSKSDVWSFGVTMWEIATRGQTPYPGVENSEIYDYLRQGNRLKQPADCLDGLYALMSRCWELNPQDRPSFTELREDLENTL
How it was run: as §1

[4] = cell survival, 48 h, CellTiter-Glo; read-out: TEL-MERTK Ba/F3 IC50

Compound | IC50 [1] [nM] | IC50 [2, 4] [nM] | IC50 [3] [nM] | IC50 ([2]; read-out: TEL-MERTK Ba/F3 IC50; cell survival, 48 h, CellTiter-Glo) [nM]
CN1CCC(NC(=O)c2cc3c(Nc4ccc(NC(=O)c5cccn(-c6ccccc6)c5=O)cc4)ccnc3cn2)CC1 [Example 3, N-(1-methyl-4-piperidyl)-4-[4-[(2-oxo-1-phenyl-pyridine-3-carbonyl)amino]anilino]-1,7-naphthyridine-6-carboxamide] | 7 | 314 | 45 | 
CC(C)n1cc(C(=O)Nc2ccc(Oc3ccnc4cnc(N5CCNCC5)cc34)cc2)c(=O)c(-c2ccc(F)cc2)c1 [Example 13, 5-(4-Fluorophenyl)-1-isopropyl-4-oxo-N-[4-[(6-piperazin-1-yl-1,7-naphthyridin-4-yl)oxy]phenyl]pyridine-3-carboxamide] | 7.1 | 31 | 13 | 
C[C@H](CO)n1cc(C(=O)Nc2ccc(Oc3ccnc4cnc(C(=O)NC5CCN(C)CC5)cc34)cc2)c(=O)n(-c2ccc(F)cc2)c1=O [Example 14, 4-[4-[[3-(4-Fluorophenyl)-2,4-dioxo-1-[(1R)-2-hydroxy-1-methyl-ethyl]pyrimidine-5-carbonyl]amino]phenoxy]-N-(1-methyl-4-piperidyl)-1,7-naphthyridine-6-carboxamide] | 31 | 80 | 7 | 
CN1CCC(NC(=O)c2cc3c(Oc4ccc(NC(=O)c5cn(C6CC6)c(=O)n(-c6ccc(F)cc6)c5=O)cc4)ccnc3cn2)CC1 [Example 15, 4-[4-[[1-Cyclopropyl-3-(4-fluorophenyl)-2,4-dioxo-pyrimidine-5-carbonyl]amino]phenoxy]-N-(1-methyl-4-piperidyl)-1,7-naphthyridine-6-carboxamide] | 33.2 | 159 | 14 | 
O=C(Nc1ccc(Oc2ccnc3cnc(N4CCN(C5COC5)CC4)cc23)cn1)c1ccnn(-c2ccc(F)cc2)c1=O [Example 20, 2-(4-fluorophenyl)-N-[5-[[6-[4-(oxetan-3-yl)piperazin-1-yl]-1,7-naphthyridin-4-yl]oxy]-2-pyridyl]-3-oxo-pyridazine-4-carboxamide] |  | 20 | 16 | 
Cc1cc(NC(=O)c2cccn(-c3ccccc3)c2=O)ccc1Oc1ccnc2cnc(N3CCNCC3)cc12 [Example 30, N-[3-methyl-4-[(6-piperazin-1-yl-1,7-naphthyridin-4-yl)oxy]phenyl]-2-oxo-1-phenyl-pyridine-3-carboxamide] | 339 |  | 470 | 466
CN1CCC(NC(=O)c2cc3c(Oc4ccc(NC(=O)c5cccn(-c6ccccc6)c5=O)cc4F)ccnc3cn2)CC1 [Example 33, 4-[2-fluoro-4-[(2-oxo-1-phenyl-pyridine-3-carbonyl)amino]phenoxy]-N-(1-methyl-4-piperidyl)-1,7-naphthyridine-6-carboxamide] | 63.8 | 58 | 30 | 
O=C(Nc1ccc(Oc2ccnc3cnc(N4CCNCC4)cc23)cc1)c1cn(C2CC2)c(=O)n(-c2ccc(F)cc2)c1=O [Example 36, 1-cyclopropyl-3-(4-fluorophenyl)-2,4-dioxo-N-[4-[(6-piperazin-1-yl-1,7-naphthyridin-4-yl)oxy]phenyl]pyrimidine-5-carboxamide] | 25.7 | 160 | 34 | 
CN1CCC(NC(=O)c2cc3c(Oc4ccc(NC(=O)c5cn(C)cc(-c6ccc(F)cc6)c5=O)cc4)ccnc3cn2)CC1 [Example 37, 4-[4-[[5-(4-fluorophenyl)-1-methyl-4-oxo-pyridine-3-carbonyl]amino]phenoxy]-N-(1-methyl-4-piperidyl)-1,7-naphthyridine-6-carboxamide] | 33.5 | 50 | 17 | 

Continued, in another order:

IC50 [1] [nM] | Compound | IC50 [2, 4] [nM] | IC50 [3] [nM] | IC50 ([2]; read-out: TEL-MERTK Ba/F3 IC50; cell survival, 48 h, CellTiter-Glo) [nM]
28.8 | O=C(Nc1ccc(Oc2ccnc3cnc(N4CCNCC4)cc23)cc1)c1cccn(-c2ccc(F)cc2)c1=O [Example 12.2, 1-(4-fluorophenyl)-2-oxo-N-[4-[(6-piperazin-1-yl-1,7-naphthyridin-4-yl)oxy]phenyl]pyridine-3-carboxamide] | 56 | 48 | 
80.8 | CC(C)n1cc(C(=O)Nc2ccc(Oc3ccnc4cnc(N5CCNCC5)cc34)cc2)c(=O)n(-c2ccccn2)c1=O [Example 12.3, 1-isopropyl-2,4-dioxo-N-[4-[(6-piperazin-1-yl-1,7-naphthyridin-4-yl)oxy]phenyl]-3-(2-pyridyl)pyrimidine-5-carboxamide] | 431 | 64 | 
12.8 | CC(C)n1cc(C(=O)Nc2ccc(Oc3ccnc4cnc(N5CCNCC5)cc34)cc2)c(=O)n(-c2ccc(F)cn2)c1=O [Example 12.4, 3-(5-fluoro-2-pyridyl)-1-isopropyl-2,4-dioxo-N-[4-[(6-piperazin-1-yl-1,7-naphthyridin-4-yl)oxy]phenyl]pyrimidine-5-carboxamide] | 100 | 12 | 
15.9 | Cn1cc(C(=O)Nc2ccc(Oc3ccnc4cnc(N5CCNCC5)cc34)cc2)c(=O)c(-c2ccc(F)cc2)c1 [Example 13.1, 5-(4-fluorophenyl)-1-methyl-4-oxo-N-[4-[(6-piperazin-1-yl-1,7-naphthyridin-4-yl)oxy]phenyl]pyridine-3-carboxamide] | 50 | 22 | 
14 | CC(C)n1cc(C(=O)Nc2ccc(Oc3ccnc4cnc(C(=O)NC5CCN(C)CC5)cc34)cn2)c(=O)n(-c2ccc(F)cc2)c1=O [Example 27.5, 4-[[6-[[3-(4-fluorophenyl)-1-isopropyl-2,4-dioxo-pyrimidine-5-carbonyl]amino]-3-pyridyl]oxy]-N-(1-methyl-4-piperidyl)-1,7-naphthyridine-6-carboxamide] | 9 | 2 | 
6.1 | CC(C)n1cc(C(=O)Nc2ccc(Oc3ccnc4cnc(C(=O)NC5CCN(C)CC5)cc34)cc2)c(=O)c(-c2ccc(F)cc2)c1 [Example 37.1, 4-[4-[[5-(4-fluorophenyl)-1-isopropyl-4-oxo-pyridine-3-carbonyl]amino]phenoxy]-N-(1-methyl-4-piperidyl)-1,7-naphthyridine-6-carboxamide] | 8 | 2 | 
